From ChEMBL document CHEMBL3621204, “Dual biological functions of the apoptotic activity and anti-inflammatory effect by alcyonolide congeners from the Okinawan soft coral, Cespitularia sp” (Bioorg Med Chem Lett, 2015)
pIC50: −log10 of the molar value. The source made the active and inactive calls. The calls are words filed in the database; no cut-off is given here.

Tests used:
RAW264.7 [1] = assay: Antiinflammatory activity in mouse RAW264.7 cells assessed as inhibition in LPS-stimulated nitric oxide production; format: functional, cell-based
RAW264.7 [2] = assay: Anti-inflammatory activity in mouse RAW264.7 cells assessed as inhibition of LPS/IFN-gamma-stimulated COX2 mRNA expression at 4 uM by RT-PCR analysis (reference value: 54.51 ng/uL); format: functional
RAW264.7 [3] = assay: Anti-inflammatory activity in mouse RAW264.7 cells assessed as inhibition of LPS/IFN-gamma-stimulated COX2 mRNA expression at 8 uM by RT-PCR analysis (reference value: 54.51 ng/uL); format: functional
HCT-116 [4] = assay: Cytotoxicity against human HCT116 cells; format: functional, cell-based
RAW264.7 [5] = assay: Anti-inflammatory activity in mouse RAW264.7 cells assessed as inhibition of LPS/IFN-gamma-stimulated iNOS mRNA expression at 4 uM by RT-PCR analysis (reference value: 28.91 ng/uL); format: functional
RAW264.7 [6] = assay: Cytotoxicity against LPS/IFN-gamma stimulated mouse RAW264.7 cells assessed as cell survival at 2 to 8 uM by MTT assay; format: cell-based; conditions: raw264.7, 8 µM
RAW264.7 [7] = assay: Anti-inflammatory activity in mouse RAW264.7 cells assessed as inhibition of LPS/IFN-gamma-stimulated COX2 mRNA expression by RT-PCR analysis; format: functional, cell-based
RAW264.7 [8] = assay: Anti-inflammatory activity in mouse RAW264.7 cells assessed as inhibition of LPS/IFN-gamma-stimulated iNOS mRNA expression at 2 uM by RT-PCR analysis (reference value: 28.91 ng/uL); format: functional
RAW264.7 [9] = assay: Anti-inflammatory activity in mouse RAW264.7 cells assessed as inhibition of LPS/IFN-gamma-stimulated iNOS mRNA expression by RT-PCR analysis; format: functional, cell-based
RAW264.7 [10] = assay: Anti-inflammatory activity in mouse RAW264.7 cells assessed as inhibition of LPS/IFN-gamma-stimulated iNOS mRNA expression at 8 uM by RT-PCR analysis (reference value: 28.91 ng/uL); format: functional
HCT-116 [11] = assay: Induction of apoptosis in human HCT116 cells assessed as activation of caspase 3/7 at 2.5 to 20 uM after 2 hrs 30 mins by luciferase reporter assay; format: functional, cell-based
RAW264.7 [12] = assay: Anti-inflammatory activity in mouse RAW264.7 cells assessed as inhibition of LPS/IFN-gamma-stimulated COX2 mRNA expression at 2 uM by RT-PCR analysis (reference value: 54.51 ng/uL); format: functional
HCT-116 [13] = assay: Induction of apoptosis in human HCT116 cells assessed as nuclear condensation at 100 uM by fluorescence assay; format: functional, cell-based

Row | Structure (SMILES) | inhibition (RAW264.7 [1]) | Activity (RAW264.7 [2]) [ng/µL] | Activity (RAW264.7 [3]) [ng/µL] | pIC50 (HCT-116 [4]) | Activity (RAW264.7 [5]) [ng/µL] | Activity (RAW264.7 [6]) | inhibition (RAW264.7 [7]) | Activity (RAW264.7 [8]) [ng/µL] | inhibition (RAW264.7 [9]) | Activity (RAW264.7 [10]) [ng/µL] | Activity (HCT-116 [11]) | Activity (RAW264.7 [12]) [ng/µL] | Activity (HCT-116 [13])
1 | O=C1c2c(O)cc(O)cc2O[C@H](c2ccc(O)cc2)[C@H]1O | Dose-dependent effect | – | – | – | – | – | – | – | – | – | – | – | –
2 | C=CC(=C)[C@@H]1[C@@H](OC(C)=O)OC=C2[C@H](CC=C(C)C)OC(=O)C[C@H]21 | Dose-dependent effect | 31.77 | 15.93 | 5.22 | 12.44 | Non-toxic | Dose-dependent effect | 20.66 | Dose-dependent effect | 6.58 | Active | 37.1 | Active
3 | C=C(CCCC(C)=O)[C@@H]1[C@@H](OC(C)=O)OC=C2[C@H](CC=C(C)C)OC(=O)C[C@H]21 | Dose-dependent effect | 21.48 | 13.75 | 5.23 | 10.94 | Non-toxic | Dose-dependent effect | 24.62 | Dose-dependent effect | 8.25 | Active | 37.36 | Active
